Results reported in article PMC11272598, “RG7774 (Vicasinabin), an orally bioavailable cannabinoid receptor 2 (CB2R) agonist, decreases retinal vascular permeability, leukocyte adhesion, and ocular inflammation in animal models” (Frontiers in Pharmacology, 2024).

Tests used:
Human FAAH = target: T1, Human FAAH (Homo sapiens, UniProt O00519); experiment: Human FAAH assay; type: biochemical; details: RG7774 10 µM; read-out: Mean ± SEM % inhibition of control, Human FAAH
T1 construct: purchased Cayman Chemical Company
Procedure: Mouse brain was homogenized in 50 mM Tris-HCl (pH 7.4) using a glass potter, centrifuged at 1000 g for 10 min, and the pellet was discarded. The supernatant (50 µg) was incubated with [^14C]-AEA (10 µM) (ARC, MO, USA) at 37°C for 15 min (Tris-HCl, pH 9.0) and reactions were stopped with a 2:1 (v/v) mixture of chloroform/methanol. [^14C]-ethanolamine release in the aqueous phase was measured as previously reported. Mouse supernatants (50 µg) were preincubated with RG7774 (10 µM) for 15 min and added directly to the incubation medium. Purified human FAAH (1.7 µg; Cayman Chemical Company, MI, USA) was incubated with [^14C]-AEA (10 µM) (ARC, MO, USA) at 37°C for 15 min (pH 9.0), as previously described. […] for 15 min with 8 different concentrations of RG7774 (0.1-500 µM) and added directly to the incubation medium (250 µL). Control experiments was carried out in the presence of the FAAH inhibitor, URB-597 (100 nM).

laser-induced CNV = experiment: Laser-induced CNV in rats, fluorescein angiography lesion area; type: in vivo, Brown Norway rats; details: CNV rat model, ED50 0.037 mg/kg
Procedure: Male Brown Norway rats (Charles River, Sulzfeld, Germany) aged 9 weeks and weighing 200 g on arrival ([…] after 1 week) were housed in individually ventilated GR1800 cages (Tecniplast, Pontremoli, Italy) with a maximum density of n = 5 rats per cage with the same litter and sex. The room was kept at 20°C–24°C with 50%–60% humidity and a 12/12 h light-dark cycle with ad libitum access to standard diet and water.
RG7774 was formulated (w/w) in 0.1% hydroxyethyl cellulose, 1% polysorbate 80, 0.18% methylparaben, 0.02% propylparaben, and 0.21% citric acid monohydrate, adjusted to pH 6 using NaOH. Three studies with 20 rats each were performed. […] The wellbeing of the animals was monitored daily, and free access was granted to food and water. […] Body weight was continuously monitored, and oral doses of RG7774 were adjusted accordingly. […]
Rats were anesthetized 1 week after laser injury using fentanyl 0.005 mg/kg, medetomidine 0.15 mg/kg, and midazolam 2 mg/kg. […] Retinal vessels and neovascularization were visualized by switching to fluorescence mode.
Images taken by the Heidelberg Spectralis HRA system were manually analyzed for the degree of CNV within the lesion (fluorescent) area and the affected area (in mm^2) was calculated using the Heidelberg Eye Explorer imaging program (Heidelberg Spectralis HRA, Heidelberg Engineering, Heidelberg, Germany). […]

5-HT6 (h) = 5-HT6 (h) (Homo sapiens, UniProt P50406); experiment: CEREP radioligand binding; details: radioligand [^3H]-LSD
Description: (§1) Supplement Table1.docx, table 3: Supplementary Table S3. RG7774 binding to non-CB1R/CB2R receptors, ion channels, transporters, and enzymes (CEREP, Celle l’Evescault, France; http://www.cerep.fr). | column: % inhibition of control SB (n = 2)

CCR1 = CCR1 (Homo sapiens, UniProt P32246); experiment: CEREP radioligand binding; details: radioligand [^125I]-MIP-1α
Description: as §1

Chain of 5-HT6 (h) (P50406 whole entry): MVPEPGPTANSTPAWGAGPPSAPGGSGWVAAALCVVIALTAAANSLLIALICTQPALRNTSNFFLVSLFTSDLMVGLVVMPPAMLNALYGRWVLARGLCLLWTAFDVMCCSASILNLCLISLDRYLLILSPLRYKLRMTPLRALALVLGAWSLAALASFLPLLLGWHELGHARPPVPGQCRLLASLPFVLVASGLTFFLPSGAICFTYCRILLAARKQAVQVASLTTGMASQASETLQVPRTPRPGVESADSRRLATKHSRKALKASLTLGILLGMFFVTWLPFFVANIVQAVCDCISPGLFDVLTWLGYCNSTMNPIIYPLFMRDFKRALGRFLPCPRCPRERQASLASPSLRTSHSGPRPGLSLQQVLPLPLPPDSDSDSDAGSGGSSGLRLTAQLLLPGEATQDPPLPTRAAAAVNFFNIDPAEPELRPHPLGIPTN
T1 sequence (O00519 whole entry): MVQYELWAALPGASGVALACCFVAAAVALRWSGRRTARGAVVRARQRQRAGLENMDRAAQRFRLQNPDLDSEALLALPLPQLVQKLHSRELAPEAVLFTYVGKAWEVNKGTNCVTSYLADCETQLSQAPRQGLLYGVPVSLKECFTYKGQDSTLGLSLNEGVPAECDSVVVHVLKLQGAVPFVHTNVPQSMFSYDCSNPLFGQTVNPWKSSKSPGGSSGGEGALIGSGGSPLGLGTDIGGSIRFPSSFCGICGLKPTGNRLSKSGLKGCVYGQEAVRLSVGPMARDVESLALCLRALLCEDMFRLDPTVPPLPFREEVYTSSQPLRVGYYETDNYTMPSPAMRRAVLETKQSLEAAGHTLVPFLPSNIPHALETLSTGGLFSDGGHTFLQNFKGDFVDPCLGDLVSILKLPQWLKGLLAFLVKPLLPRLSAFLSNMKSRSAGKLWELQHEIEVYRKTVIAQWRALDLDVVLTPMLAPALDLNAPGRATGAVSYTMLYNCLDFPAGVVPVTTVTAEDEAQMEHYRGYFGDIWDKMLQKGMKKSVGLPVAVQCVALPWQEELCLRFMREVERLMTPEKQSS
Chain of CCR1 (P32246 whole entry): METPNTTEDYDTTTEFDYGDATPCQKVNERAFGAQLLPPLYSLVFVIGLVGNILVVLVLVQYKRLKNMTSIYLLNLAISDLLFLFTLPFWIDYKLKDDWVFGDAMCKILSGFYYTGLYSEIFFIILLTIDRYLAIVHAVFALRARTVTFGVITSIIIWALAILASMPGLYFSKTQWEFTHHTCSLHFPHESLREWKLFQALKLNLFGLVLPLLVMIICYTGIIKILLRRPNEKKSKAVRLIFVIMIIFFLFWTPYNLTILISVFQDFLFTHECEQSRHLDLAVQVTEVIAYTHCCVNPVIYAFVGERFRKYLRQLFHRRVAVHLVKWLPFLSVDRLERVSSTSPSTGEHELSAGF

Q: Which results are given for `Cn1nnnc1Cn1nnc2c(N3CC[C@H](O)C3)nc(C(C)(C)C)nc21` [RG7774, (S)-1-(5-tert-butyl-3-[(1-methyl-1H-tetrazol-5-yl)methyl]-3H-[1,2,3]triazolo[4,5-d]pyrimidin-7-yl)pyrrolidin-3-ol]?
A: inhibition at 10 µM (Human FAAH): -5.2%; maximum concentration of the free active epimer in plasma associated with the ED50 (laser-induced CNV): 12.5 nM; average concentration of the free active epimer in plasma associated with the ED50 (laser-induced CNV; S/R-enantiomer ratio of 2 assumed): 1.05 nM; % inhibition of control SB (n = 2) (5-HT6 (h)): 3.5%; % inhibition of control SB (n = 2) (CCR1): 5.6%
